Results reported in US20090156404A1, “Methods and Compositions for Reducing Stress in Plants” (CROP MICROCLIMATE MANAGEMENT, INC., priority 2007, published 2009).

Experiments:
Assay type in all cases: in vivo, tomato
[1] = test system: tomatoes (var. Marglobe); experiment: Freeze event, greenhouse grown tomatoes sprayed with composition (Example 1); settings: exposures to −3.3° C
Text: Unadapted plants in trays were sprayed with a composition comprised of a particulate material and a plant growth regulating compound mixed with water. The composition was applied using a backpack sprayer in a factorial trial design. The particulate material used was kaolin, applied at 25 and 50 kg/ha. […] Two plant growth regulating compounds, methyl salicylate and sodium salicylate, were each mixed individually with the kaolin. In addition to combinations of kaolin and each of the plant growth regulating compounds, the experiment included applying kaolin alone and each of the plant growth regulating compounds alone, each mixed with water. The concentrations of each of the plant growth regulating compounds in the composition were 1×10^−4M and 1×10^−5M.

[2] = test system: Field-grown tomatoes (var. Better Boy); experiment: Field trial without irrigation, weekly treatments (Example 3)
Text: Treatment consisted of a composition comprised of a particulate material and a plant growth regulating compound mixed with water. The particulate material was kaolin, applied at 25 and 50 kg/ha. […] The plant growth regulating compound was sodium salicylate, which was applied at a concentration of 1×10^−5M in the composition. In addition to combinations of kaolin and the plant growth regulating compound, the experiment included applying kaolin alone and the plant growth regulating compound alone, each mixed with water. The trial was conducted in a grower field of sandy soil in Wake County, N.C. under grower conditions. The conditions were considered to be severe, as there was no irrigation and rainfall was insufficient during the trial. Treatments were applied at weekly intervals. The trial was a randomized complete block design with three replications.

[3] = test system: early season tomatoes (var. Mountain Spring); experiment: Irrigated field trial, flower abortion (Example 4); settings: 1 × 10^−5M
Text: In addition to combinations of kaolin and the plant growth regulating compound, the experiment included applying kaolin alone and the plant growth regulating compound alone, each mixed with water.

[4] = test system: Potted tomatoes; experiment: Chill stress of potted tomatoes under field conditions (Example 5); settings: particulate 0 kg/ha, rating 10 completely healthy, 0 dead
Text: Potted tomatoes under field conditions were subjected to cold temperatures in Australia in September-October 2007. […] The plants were sprayed with a composition comprised of particulate material and a plant growth regulating compound mixed with water. The particulate material used was kaolin, applied at 25 and 50 kg/ha. […] Two plant growth regulating compounds, sodium salicylate and benzyl acetate, were each mixed individually with the kaolin. The concentration of each plant growth regulating compound in the composition was 1×10^−5M. In addition to combinations of kaolin and each of the plant growth regulating compounds, the experiment included applying kaolin alone and sodium salicylate alone each mixed with water. The vigor and health of the plants were evaluated during the period of the trial.

[5] = test system: tomatoes (var. Marglobe); experiment: Growth chamber induced temperature/light stress in tomatoes (Example 2); settings: for Chlorosis (%): after five days, 4 to 42° C
Description: In this example, a growth chamber was used to induce stress in plants. Tomatoes (var. Marglobe) were greenhouse grown, then adapted in the growth chamber for two days at a constant 20° C. and the highest light intensity produced by the growth chamber. The temperature was then programmed for a multi-step diurnal variation between about 4 and about 42° C. The plants were treated with a composition comprised of a particulate material and a plant growth regulating compound mixed with water. The particulate material used was Kaolin, applied at 25 and 50 kg/ha. […] The plant growth regulating compound was sodium salicylate, which was applied at 1×10^−4M and 1×10^−5M in the composition. In addition to combinations of kaolin and the plant growth regulating compound, the experiment included applying kaolin alone and the plant growth regulating compound alone, each mixed with water.

SMILES: COC(=O)c1ccccc1O [Me Salicylate, methyl salicylate]
- Mortality (%) ([1]; 1 × 10^−4M): 0%
- Mortality (%) ([1]; 1 × 10^−5M): 20%

SMILES: O=C([O-])c1ccccc1O.[Na+] [Na Salicylate, sodium salicylate]
- # flower clusters/plant ([2]; Rating 1, 1 × 10^−5M): 2.61
- # Fruit > 2 cm ([2]; Rating 2, 1 × 10^−5M): 1.05
- # flower clusters/plant ([2]; Rating 2, 1 × 10^−5M): 3.78
- # Mature blossoms ([2]; Rating 3, 1 × 10^−5M): 2.89
- # clusters/plant ([2]; Rating 3, 1 × 10^−5M): 0.75
- Fruit > 1 cm ([2]; Rating 3, 1 × 10^−5M): 1.46
- stress protection (in words) ([2]; plant growth, flowering, fruit clusters per plant, no irrigation): values intermediate between the untreated plants and the plants treated with both
- Mortality (%) ([1]; 1 × 10^−4M): 83%
- Mortality (%) ([1]; 1 × 10^−5M): 6.3%
- # Aborted Flowers/Plant ([3]; Rating 1): 20.75
- # Aborted Flowers/Plant ([3]; Rating 2): 3.94
- Plant Vigor/Health ([4]; 7/10/2007, growth compound 0.8 g/ha): 7.7 a
- Plant Vigor/Health ([4]; 7/10/2007, growth compound 1.6 g/ha): 7.3 a
- Plant Vigor/Health ([4]; 12/9/2007, growth compound 0.8 g/ha): 10 a
- Plant Vigor/Health ([4]; 12/9/2007, growth compound 1.6 g/ha): 10 a
- Plant Vigor/Health ([4]; 26/09/2007, growth compound 0.8 g/ha): 6.5 ab
- Plant Vigor/Health ([4]; 26/09/2007, growth compound 1.6 g/ha): 6.5 ab
- Growth (cm) ([5]; 1 × 10^−4M): 1.9 cm
- Chlorosis (%) ([5]; 1 × 10^−4M): 7.5%
- Growth (cm) ([5]; 1 × 10^−5M): 1.9 cm
- Chlorosis (%) ([5]; 1 × 10^−5M): 8.8%
